Test results from patent publication US8022105B2, “Prevention of neutrophil recruitment” (The Brigham and Women's Hospital, Inc., priority 1999, dated 2011).
“Also recorded” adds a separate entry of the source. Read-outs that look alike come from different tables or passages of the source. Blank lines part the entries; values can stand above or below the molecule they belong to.

Tests used:
[1] = Biostability of LX analogs in mouse whole blood; settings: incubated 3 h at 37° C., LC/MS/MS
Description: (§1) LXA4 (21 mM) was incubated ex vivo in mouse whole blood for 3 h. […] (B) Biostability of LXA4 and stable analogs in mouse whole blood. LXA4, 15(R/S)-methyl-LXA4 (ATLa1, which carries a racemic methyl group at C-15), and 15-epi-16-(para-fluoro)-phenoxy-LXA4(ATLa2, in which a bulky (para-fluoro)-phenoxy group replaces the w-chain at C-16) were added (see Methods) to heparinized mouse whole blood and incubated at 37° C. for 0 and 3 h. Following centrifugation at 800×g and 0° C., the plasma supernatants were drawn off and stopped in two volumes of ice cold methanol. The lipoxins were extracted by solid phase methodology and quantitated by LC/MS/MS. Values represent means±SEM (n=3-4).
(§2) Biostability of LX analogs in mouse whole blood. […] The methyl formate fractions were taken to dryness with a gentle stream of nitrogen and suspended in methanol for injection and quantitative analyses by UV spectrophotometry and LC/MS/MS.
(§3) LC/MS/MS analyses. […] Samples were suspended in methanol and injected into the HPLC component, which consisted of a SpectraSYSTEM P4000 (Thermo Separation Products, San Jose, Calif.) quaternary gradient pump, a Prodigy octadecylsilane-3 (100×2 mm, 5 mm) column (Phenomenex, Torrance, Calif.) or a LUNA C18-2 (150×2 mm, 5 mm) column, and a rapid spectra scanning SpectraSYSTEM UV2000 (Thermo Separation Products, San Jose, Calif.) UV/VIS absorbance detector. […]

[2] = Biostability in human whole blood; type: in vitro ADME
isolated rat aorta = assay: Relaxation of pre-contracted isolated rat aorta; parameters: relaxation as % of the level of relaxation caused by Iloprost: dose or concentration left out as unconfirmed; settings: for relaxation of smooth muscle: aorta pre-contracted with U46619 (25 ng/ml)
Description: Rats were euthanized with pentobarbital overdoses. The aorta was isolated and a pre-load of 300-400 mg given. The vessels were pre-contracted with U46619 (25 ng/ml). Relaxation was induced with addition of Iloprost, 5(R/S)-methyl-LXB4, ATLa1, or ATLa2 to a final concentration of […]. Aorta smooth muscle relaxation was measured with a force transducer and the data digitized and stored on a PC. 5(R/S)-methyl -LXB4, ATLa1, and ATLa2 caused 42.8%, 37.0%, 38.1%, and 40.0% relaxation of smooth muscle, respectively. Values represent±SEM (n=4-6).
For example, topical administration of LXA4 ([…]) induces arteriolar dilation in the hamster cheek with no change in venular diameters while systemic delivery into rats produces a vasoconstrictor response in the mesenteric bed (26). In addition, 20 min infusion of 1 or 2 mg/kg LXA4 induces renal vasorelaxation in rats without changing mean arterial pressure (27). To determine whether the increased stability of ATLa2 enhances potential vasoreactivity at the therapeutic dose found to inhibit PMN infiltration in FIGS. 2 and 5, vascular changes in response to ATLa2 were compared directly to those of Iloprost, a prostacyclin stable analog that rapidly stimulates arterial vasodilation (Grant, S. M. & Goa, K. L. (1992) Drugs 43, 899-924). Added to organ baths, ATLa2 relaxed precontracted isolated rat aorta to ˜40% of the level of relaxation caused by equimolar treatment ([…]) with Iloprost (not shown). […] In sharp contrast, injection of equimolar quantities of Iloprost elicited a maximum mean decrease of ˜28 mmHg ˜50 s post-injection, with pressure returning to baseline after ˜8 min.

[3] = test system: TNF-a-induced PMN infiltration; assay: TNF-a-induced PMN infiltration into mouse dorsal air pouch; type: in vivo; parameters: toxicity to the mice: dose or concentration left out as unconfirmed; settings: for inhibition of TNF-a-induced PMN infiltration, local air pouch delivery: local into air pouch prior to TNF-a (20 ng/mouse), ATLa2 and dexamethasone, ASA 1.0 mg/mouse
Description: When injected locally into the air pouch, following injection of vehicle (900 ml PBS), murine TNF-a (20 ng/100 ml PBS) induced the infiltration of 4.8±1.1×10^6 PMN by 4 h. Dexamethasone (10 mg/air pouch), ASA (1 mg/air pouch), and ATLa2 (10 mg/air pouch) were locally administered in 900 ml PBS and prior to TNF-a. Systemic delivery of ATLa2 was by i.v. injection into the mouse tail vein (10 mg/mouse). 2.1±0.7×105 PMN were found in the air pouch 4 h after injection of vehicle (1 ml sterile PBS) alone. Values represent mean±SEM (n=3-5). *P<0.05, †P<0.15 Student's two-tailed t-test
PMN infiltration into mouse air pouch. While male BALB/c mice (6-8 wk) were anesthetized with isoflurane, dorsal air pouches were raised by injecting 3 ml of sterile air subcutaneously on days 0 and 3 (as in ref.) (Sin, Y. M., Sedgwick, A. D., Chea, E. P. & Willoughby, D. A. (1986) Ann. Rheum. Dis. 45, 873-877). On day 6 and while the mice were anesthetized with isoflurane, 10 mg of ATLa2 was delivered as a bolus injection into either the tail vein in 100 ml of sterile 0.9% saline or locally into the air pouch in 900 ml of PBS −/− (Dulbecco's Phosphate Buffered Saline without magnesium or calcium ions, BioWhittaker, Walkersville, Md.). Dexamethasone and ASA (Sigma Chemical Co., St. Louis, Mo.) were delivered locally as 10 mg and 1.0 mg doses in 900 ml of PBS −/−, respectively. Inflammation in the air pouch was induced by local injection of recombinant murine TNF-a (20 ng) (Boehringer Mannheim, Indianapolis, Ind.) dissolved in 100 ml of sterile PBS. While the mice were anesthetized with isoflurane, the air pouches were lavaged twice with 3 ml of sterile PBS 4 h after the initial TNF-a injection. Aspirates were centrifuged at 2000 rpm for 15 min at 23° C. The supernatants were removed and the cells were suspended in […] of PBS. Aliquots of the cell suspension were stained with Trypan Blue and enumerated by light microscopy. 50 ml of the resuspended aspirate cells were added to 150 ml of 30% BSA and centrifuged onto microscope slides at 2200 rpm for 4 min using a Cytofuge (StatSpin, Norwood, Mass.). Slides were allowed to air dry and were stained with Wright Giemsa stain (Sigma Chemical Co., St. Louis, Mo.) for determination of differential leukocyte counts. For microscopic analysis, tissues were obtained with a 6 mm tissue biopsy punch (Acu-Punch, Acuderm, Inc., Ft. Lauderdale, Fla.) and fixed in 10% buffered formaldehyde. Samples were then embedded in paraffin, sliced, and stained with hematoxylin-eosin.

[4] = Mouse arterial pressure after tail vein injection; type: in vivo; parameters: maximum mean decrease in arterial pressure: dose or concentration left out as unconfirmed
Description: Mouse arterial pressure was monitored with a pressure transducer via the cannulated carotid artery. […] 10 mg of ATLa2 were injected into 3 mice with no change in mean arterial pressure. Values represent mean±SEM (n=3). Arterial pressure. Male BALB/c mice (6-8 wk, 20 g) were anesthetized with pentobarbital (80 mg/kg). The trachea was isolated and a small polyethylene catheter (PE50) was introduced to maintain a patent airway. The right carotid artery was isolated and cannulated with PE 10 tubing filled with heparinized (10 units/ml) normal saline. The arterial catheter was connected to a pressure transducer (World Precision Instruments, Sarasota, Fla.) and the arterial pressure tracing was recorded continuously (Astromed MT95K2, West Warwick, R.I.). All surgical manipulations were performed using a surgical microscope (Carl Zeiss, Inc., Thomwood, N.Y.).

[5] = Methyl ester hydrolysis of ATLa2 to free acid in ex vivo mouse whole blood; type: in vitro ADME; settings: within 10-15 minutes, 2.8 μM in mouse whole blood
Description: FIG. 7 represents methyl ester hydrolysis of ATLa2 to free acid in ex vivo mouse whole blood. ATLa2 was incubated ex vivo in mouse whole blood (2.8 μM) for 0, 2, 5, 10, 15, or 180 minutes. The incubations were stopped by chilling the blood on ice for one minute followed by centrifugation (800×g) at 0° C. The plasma supernatant was stopped in 2 vol of ice cold methanol. The samples were prepared for analysis by solid phase extraction and the amount of free acid in the sample was quantiitated by LC/MS/MS. Within 10-15 minutes, 100% of the ATLa2 methyl ester is hydrolyzed to the free acid without loss of compound. Values represent mean±SEM (n=3).

[6] = male, BALB/c, 3 h, 2.4 mM
Description: as §1, §2, §3

[7] = test system: LTB4-induced PMN infiltration; settings: added topically, in vivo; cited from earlier work

remaining / recoverable in mouse whole blood [1]: ~90%
biostability in human whole blood compared with mouse whole blood [2]: quantitatively similar results
SMILES: CCCCCC(C)(O)/C=C/C=C\C=C\C=C\[C@@H](O)[C@@H](O)CCCC(=O)O (mixture of isomers) [ATLa1, 15(R/S)-methyl-LXA4]
relaxation of smooth muscle (isolated rat aorta): 38.1%

SMILES: CCCCCC(O)C(O)C=CC=CC=CC=CC(C)(O)CCCC(=O)O (racemic) [5(R/S)-methyl-LXB4]
relaxation of smooth muscle (isolated rat aorta): 37.0%

SMILES: CC(=O)Oc1ccccc1C(=O)O [ASA, acetylsalicylic acid, reference compound]
inhibition of TNF-a-induced PMN infiltration, local air pouch delivery ([3]; 4 h): 69%

SMILES: COC(=O)CCC[C@H](O)[C@H](O)/C=C/C=C/C=C\C=C\[C@H](O)COc1ccc(F)cc1 [ATLa2]
change in mean arterial pressure ([4]; (24 nmol/mouse) tail vein injection): no apparent changes; also recorded: no change
inhibition of TNF-a-induced PMN infiltration, i.v. delivery ([3]; i.v. tail vein before TNF-a (20 ng/mouse), 4 h): 85%
number of neutrophils in tissue lining of the air pouch (histology) ([3]; intra-pouch injection or i.v. prior to TNF-a): reduced
inhibition of TNF-a-induced PMN infiltration, local air pouch delivery ([3]; 4 h): ~77%
toxicity to the mice ([3]; local or i.v.): no apparent toxicity
relaxation of smooth muscle (isolated rat aorta): 40.0%
relaxation as % of the level of relaxation caused by Iloprost (isolated rat aorta; organ baths): ~40%
ATLa2 methyl ester hydrolyzed to the free acid [5]: 100%
remaining / recoverable in mouse whole blood [6]: ~100%

SMILES: CC#CCC(C)[C@H](O)/C=C/[C@@H]1[C@H]2C/C(=C/CCCC(=O)O)C[C@H]2C[C@H]1O (stereo partly shown) [Iloprost, reference compound]
time of maximum mean decrease post-injection ([4]; tail vein injection): ~50 s
maximum mean decrease in arterial pressure ([4]; tail vein injection, (equimolar to ATLa2)): ~28 mmHg
relaxation of smooth muscle (isolated rat aorta): 42.8%

SMILES: CCCCC[C@H](O)/C=C/C=C\C=C\C=C\[C@@H](O)[C@@H](O)CCCC(=O)O [LXA4, 5S,6R,15S-trihydroxyeicosa-7E,9E,11Z,13E-tetraenoic acid]
level of inhibition of LTB4-induced PMN recruitment compared to that of either ATLa1 or ATLa2 [7]: less than 25%

SMILES: C[C@@H]1C[C@H]2[C@@H]3CCC4=CC(=O)C=C[C@]4(C)[C@@]3(F)[C@@H](O)C[C@]2(C)[C@@]1(O)C(=O)CO [dexamethasone, reference compound]
inhibition of TNF-a-induced PMN infiltration, local air pouch delivery ([3]; 4 h): 61%
